Test results published in the supplement of paper PMC10307832.

Columns and labels:
Assay in all cases: relative viability (nuclei count vs DMSO), 5 days (fraction); higher = more cells survive
XMD13-2 = compound: C1CC1C(=O)NC2=NNC3=C2C=CC(=C3)C4=CC(=CC=C4)C(=O)NC5CC5 [XMD13-2]
Procedure, shortened: (§1)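 For viability, nuclei in each treated well were divided by nuclei in vehicle wells and the median across plates was taken. Lung cancer cell lines in 1536-well plates were pinned with five library-drug doses (not always all listed) spaced by √10, cultured 5 days without medium change, and imaged at 4× after Hoechst staining, with plates passing only at control CV below 25% and at least one doubling.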

ALW-II-49-7 = compound: Cc1ccc(C(=O)Nc2cccc(C(F)(F)F)c2)cc1Nc1cncc(C(N)=O)c1 [ALW-II-49-7]
Procedure, shortened: as §1

Dasatinib = compound: Cc1nc(Nc2ncc(C(=O)Nc3c(C)cccc3Cl)s2)cc(N2CCN(CCO)CC2)n1 [Dasatinib]
Procedure, shortened: as §1

| Cell Line | relative viability (XMD13-2; 0.05 µM) | relative viability (XMD13-2; 0.1581 µM) | relative viability (XMD13-2; 0.5 µM) | relative viability (XMD13-2; 1.581 µM) | relative viability (XMD13-2; 5 µM) | relative viability (ALW-II-49-7; 0.08 µM) | relative viability (ALW-II-49-7; 0.253 µM) | relative viability (ALW-II-49-7; 0.8 µM) | relative viability (ALW-II-49-7; 2.53 µM) | relative viability (ALW-II-49-7; 8 µM) | relative viability (Dasatinib; 0.005 µM) | relative viability (Dasatinib; 0.01581 µM) | relative viability (Dasatinib; 0.05 µM) | relative viability (Dasatinib; 0.075 µM, anchor plate) | relative viability (Dasatinib; 0.1581 µM) | relative viability (Dasatinib; 0.5 µM) |
| --- | --- | --- | --- | --- | --- | --- | --- | --- | --- | --- | --- | --- | --- | --- | --- | --- |
| NCI-H522 | 1.08 | 1.03 | 0.935 | 0.918 | 0.745 | 0.968 | 0.938 | 0.994 | 1.2 | 1.03 | 0.964 | 0.829 | 0.801 | 0.904 | 0.768 | 0.758 |
| NCI-H460 | 1.06 | 1.01 | 1.06 | 1.01 | 0.982 | 1 | 1.07 | 0.944 | 1.02 | 0.882 | 0.949 | 0.897 | 0.856 | 0.529 | 0.73 | 0.605 |
| EMC-BAC-2 | 1.13 | 0.896 | 1.02 | 0.616 | 0.79 | 1.02 | 0.966 | 0.888 | 0.902 | 0.758 | 0.884 | 0.786 | 0.657 | 0.336 | 0.472 | 0.344 |
| NCI-H23 | 1.04 | 0.907 | 1.04 | 0.801 | 1.07 | 0.936 | 0.978 | 0.907 | 1.06 | 0.865 | 0.923 | 0.857 | 0.858 | 0.866 | 0.6 | 0.482 |
